Laboratory results: patent publication US20120265121A1, “PHTHALOCYANINE-BASED ANTIFUNGAL AGENTS” (CASE WESTERN RESERVE UNIVERSITY, priority 2011, published 2012)

Key:
[1] = tested on: C. albicans (strain SC-5134); assay: XTT reduction metabolic activity assay; format: cell-based, Candida albicans
Method: Metabolic Activity Assay: XTT reduction assays were performed according to the procedure of Chandra et al. Chandra et al., Nature Protocol. 3(12): 1909-2 (2008). Briefly, in the dark, aliquots of 2 ml of cells were treated with 200 nM of Pc 4 in 10% FBS standard growth medium in a 37° C. shaker. The next day, the cells were photoirradiated with red light using a light-emitting diode array (EFOS, Mississauga, Ontario, Canada) at a fluence of 200, 500, 1000 and 2000 mil/cm^2 (1 milliwat/cm^2, ymax ˜670-675 nm) at room temperature. For negative controls, a 2 ml aliquot was not photoirradiated and a 2 ml aliquot simply was loaded overnight with an appropriate amount of N′,N′-dimethylformamide and then photoirridated with the highest fluence the next day. For positive control, either cells were treated with 30% ethanol or 1 uM of Thapsigargin. […] One ml of each treatment condition was used to incubate with XTT (final concentration 1 mg/ml) and menadione (final concentration 1 mM) for 5 hours in the dark and then transferred to 1 ml plastic cuvette for absorbance measurement. Colorimetric changes, which reflect the viability of the cells given different treatment conditions, were measured at 492-nm using a spectrophotometer (Spectronic Genesys™ 5, Analytical Instrument, Golden Valley, Minn., USA). […]

T. rubrum [2] = assay: XTT reduction assay after Pc 4-PDT; format: cell-based, Trichophyton rubrum
Method: Terbinafine sensitive (23013) and resistant (MRL666) strains of T. rubrum were grown onto Sabouraud potato agar plate for at least 24 hours at 28° C. Microconidia were separated from most of the hyphae form before treating with Pc 4-PDT.

T. rubrum [3] = assay: Clonogenic (CFU) assay after Pc 4-PDT; format: cell-based, Trichophyton rubrum; settings: 0-2 μM Pc 4, 2.0 J/cm^2
Method: Cells were treated with 0-2 μM of Pc 4 for at least 2 hours before being photoirradiated with 2.0 J/cm^2.
Mycologic cure remains the gold-standard in the evaluation of antifungal therapies and leads to lower recurrence rates. […] Immediately after photoirradiation, treated and control samples were diluted and spread 100 μL onto Sabouraud potato agar plates (Becton Dickinson, New Jersey, USA). All plates were incubated at 28° C. and colonies were counted within 5 days.

Structure (SMILES): CN(C)CCC[Si](C)(C)O[Si]1(O)n2c3c4ccccc4c2N=C2N=C(N=c4c5ccccc5c(n41)=NC1=NC(=N3)c3ccccc31)c1ccccc12 (stereo not drawn) [Pc 4, HOSiPcOSi(CH3)2(CH2)3N(CH3)2]
- metabolic activity (XTT, percent viability), FIG. 1 ([1]; 200 nM Pc 4 + 0.2-2.0 J/cm^2): impairs fungal metabolic activity
- reduction of metabolic activity (XTT) ([1]; highest Pc 4-PDT dose (1.0 μM, 2.0 J/cm^2), within an hour following photoirradiation): ~50%
- metabolic activity (XTT) (T. rubrum [2]; terbinafine resistant strain MRL666): attenuates following Pc 4-PDT
- metabolic activity (XTT) (T. rubrum [2]; terbinafine sensitive strain 23013): attenuates following Pc 4-PDT
- survival (CFU) (T. rubrum [3]; terbinafine-resistant strain MRL666): dose-dependent decrease in the survival
- survival (CFU) (T. rubrum [3]; terbinafine-sensitive strain 23013): dose-dependent decrease in the survival
